Reference: the supplement of paper PMC10307832

How the values were obtained:
Assay in all cases: relative viability (nuclei count vs DMSO), 5 days (fraction); higher = more cells survive
[1] = compound: C1=CC2=C(C=CC(=C2)C=C3C(=O)NC(=NCC4=CC=CS4)S3)N=C1 [RO-3306] + O=C(c1cc(Cc2n[nH]c(=O)c3ccccc23)ccc1F)N1CCN(C(=O)C2CC2)CC1 [Olaparib] (partner 8 µM)
Method in brief: (§1)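 Relative viability was taken as the ratio of nuclei in treated wells to nuclei in vehicle wells. Lung cancer cell lines in 1536-well plates received compounds by pin tool one day after seeding, either one drug alone or a fixed anchor-drug dose plus five library-drug doses (not always all listed) in √10 steps. Nuclei were counted on 4× images after 5 days of treatment, and values are medians of duplicate plates.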

[2] = compound: C1=CC2=C(C=CC(=C2)C=C3C(=O)NC(=NCC4=CC=CS4)S3)N=C1 [RO-3306] + Cc1cc(Nc2cc(N3CCN(C)CC3)nc(Sc3ccc(NC(=O)C4CC4)cc3)n2)n[nH]1 [Tozasertib] (partner 0.1 µM)
Method in brief: as §1

[3] = compound: O=S(=O)(c1ccccc1)N(CC(F)(F)F)c1ccc(C(O)(C(F)(F)F)C(F)(F)F)cc1 + CS(=O)(=O)CCNCc1ccc(-c2ccc3ncnc(Nc4ccc(OCc5cccc(F)c5)c(Cl)c4)c3c2)o1 [Lapatinib] (partner 2 µM)
Method in brief: as §1

[4] = compound: C1=CC2=C(C=CC(=C2)C=C3C(=O)NC(=NCC4=CC=CS4)S3)N=C1 [RO-3306] + C[C@]1(O)C[C@@H](c2nc(-c3ccc4ccc(-c5ccccc5)nc4c3)c3c(N)nccn32)C1 [Linsitinib] (partner 1 µM)
Method in brief: as §1

## SK-LU-1
[1]; first compound 0.01 µM
  relative viability: 0.425
[1]; first compound 0.03162 µM
  relative viability: 0.415
[1]; first compound 0.1 µM
  relative viability: 0.458
[1]; first compound 0.3162 µM
  relative viability: 0.663
[1]; first compound 1 µM
  relative viability: 0.425
[2]; first compound 0.01 µM
  relative viability: 0.266
[2]; first compound 0.03162 µM
  relative viability: 0.312
[2]; first compound 0.1 µM
  relative viability: 0.313
[2]; first compound 0.3162 µM
  relative viability: 0.321
[2]; first compound 1 µM
  relative viability: 0.282
[3]; first compound 0.8 µM
  relative viability: 0.903
[3]; first compound 2.53 µM
  relative viability: 1.02
[3]; first compound 8 µM
  relative viability: 0.753
[4]; first compound 0.01 µM
  relative viability: 1.25
[4]; first compound 0.03162 µM
  relative viability: 1.08
[4]; first compound 0.1 µM
  relative viability: 1.02
[4]; first compound 0.3162 µM
  relative viability: 1.19
[4]; first compound 1 µM
  relative viability: 0.957

## SK-MES-1
[1]; first compound 0.01 µM
  relative viability: 0.805
[1]; first compound 0.03162 µM
  relative viability: 0.671
[1]; first compound 0.1 µM
  relative viability: 0.601
[1]; first compound 0.3162 µM
  relative viability: 0.677
[1]; first compound 1 µM
  relative viability: 0.665
[2]; first compound 0.01 µM
  relative viability: 1.02
[2]; first compound 0.03162 µM
  relative viability: 1
[2]; first compound 0.1 µM
  relative viability: 1.01
[2]; first compound 0.3162 µM
  relative viability: 0.807
[2]; first compound 1 µM
  relative viability: 0.585
[3]; first compound 0.8 µM
  relative viability: 0.442
[3]; first compound 2.53 µM
  relative viability: 0.424
[3]; first compound 8 µM
  relative viability: 0.514
[4]; first compound 0.01 µM
  relative viability: 1.14
[4]; first compound 0.03162 µM
  relative viability: 0.859
[4]; first compound 0.1 µM
  relative viability: 1.16
[4]; first compound 0.3162 µM
  relative viability: 1.16
[4]; first compound 1 µM
  relative viability: 1.15

## SW 1573
[1]; first compound 0.01 µM
  relative viability: 0.492
[1]; first compound 0.03162 µM
  relative viability: 0.483
[1]; first compound 0.1 µM
  relative viability: 0.432
[1]; first compound 0.3162 µM
  relative viability: 0.444
[1]; first compound 1 µM
  relative viability: 0.442
[2]; first compound 0.01 µM
  relative viability: 0.198
[2]; first compound 0.1 µM
  relative viability: 0.17
[2]; first compound 0.3162 µM
  relative viability: 0.175
[2]; first compound 1 µM
  relative viability: 0.168
[3]; first compound 0.8 µM
  relative viability: 1.18
[3]; first compound 2.53 µM
  relative viability: 1.2
[3]; first compound 8 µM
  relative viability: 1.06
[4]; first compound 0.01 µM
  relative viability: 0.869
[4]; first compound 0.03162 µM
  relative viability: 0.721
[4]; first compound 0.1 µM
  relative viability: 0.805
[4]; first compound 0.3162 µM
  relative viability: 0.762
[4]; first compound 1 µM
  relative viability: 0.727
